# Experimental data from patent US8992960B2, “Multifunctional silica-based compositions and gels, methods of making them, and methods of using them” (University of Florida Research Foundation, Inc., priority 2010, dated 2015).
# Experiment: Reactivity of DMDS towards Cu(II) ions (odor over time)
# Type: physicochemical
# Conditions: in CuSiNG; preliminary results, characteristic odor over time
# Protocol: Unlike SiNG, the physico-chemical environment of DMDS in CuSiNG is expected to be somewhat different due to presence of Cu (II) ions. […] However, the DMDS electron-rich sulfur atom has the ability to weakly interact with electron-deficient Cu(II) ion. This could further facilitate adsorption of DMDS into CuSiNG. Thorough FT-IR studies are performed to understand the nature of intermolecular interactions that exist between DMDS and SiNG. In addition, thermogravimetric analysis (TGA), calorimetry and QCM sensing studies to obtain DMDS loading/release characteristics (isotherms) against CuSiNG and SiNG materials will be used to determine the role of Cu II ions in DMDS loading. A comparative isotherm data analysis along with FT-IR analysis will reveal the effect of Cu in DMDS loading/release process.
compound,measurement,value
"CSSC [DMDS, dimethyl disulfide]",reactivity to Cu(II) ions,non-reactive to Cu(II) ions
